Data taken from patent US20250114338A1, “TETRAHYDRO-PYRIDO[3,4-b]INDOLE ESTROGEN RECEPTOR MODULATORS AND USES THEREOF” (Genentech, Inc., priority 2014, published 2025).

Test system: ER-alpha MCF7
Assay: ER-alpha MCF7 HCS EC50; stated as measured by in vitro cell proliferation assays of Examples 902 and 903
Assay type: cell-based
Settings: Homo sapiens, MCF7, MCF7 cells; Table 2
How it was run: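 MCF7 cells seeded 1000-2000 cells/well for 16 h, then treated with nine-point 1:2 DMSO dilution series in quadruplicate at 37 °C, 5% CO2 for 4 days. Viable cells quantified by CellTiter-Glo ATP luminescence; EC50 calculated. Controls: fulvestrant at final 100 nM, DMSO 0.2% v/v.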

C[C@@H]1Cc2c([nH]c3ccccc23)[C@@H](c2c(F)cc(NC3CN(CCCF)C3)cc2F)N1C[C@@](F)(C#N)CO [Example 418, (R)-3-((1R,3R)-1-(2,6-difluoro-4-((1-(3-fluoropropyl)azetidin-3-yl)amino)phenyl)-3-methyl-3,4-dihydro-1H-pyrido[3,4-b]indol-2(9H)-yl)-2-fluoro-2-(hydroxymethyl) propanenitrile] showed an EC50 of 0.033 nM.

Compound C[C@@H]1Cc2c([nH]c3ccccc23)[C@@H](c2c(F)cc(NC3CN(CCCF)C3)cc2F)N1C[C@](F)(C#N)CO [Example 419, (S)-3-((1R,3R)-1-(2,6-difluoro-4-((1-(3-fluoropropyl)azetidin-3-yl)amino)phenyl)-3-methyl-3,4-dihydro-1H-pyrido[3,4-b]indol-2(9H)-yl)-2-fluoro-2-(hydroxymethyl) propanenitrile] has an EC50 of 0.026 nM.

Work on CC1(C)Cc2c([nH]c3ccccc23)[C@@H](c2c(F)cc(NC3CN(CCCF)C3)cc2F)N1CC(F)(F)CO [Example 420, (R)-3-(1-(2,6-difluoro-4-((1-(3-fluoropropyl)azetidin-3-yl)amino)phenyl)-3,3-dimethyl-3,4-dihydro-1H-pyrido[3,4-b]indol-2(9H)-yl)-2,2-difluoropropan-1-ol] yielded an EC50 of 0.117 nM.

Work on CC1(C)Cc2c([nH]c3ccccc23)[C@H](c2c(F)cc(NC3CN(CCCF)C3)cc2F)N1CC(F)(F)CO [Example 421, (S)-3-(1-(2,6-difluoro-4-((1-(3-fluoropropyl)azetidin-3-yl)amino)phenyl)-3,3-dimethyl-3,4-dihydro-1H-pyrido[3,4-b]indol-2(9H)-yl)-2,2-difluoropropan-1-ol] yielded an EC50 of 0.146 nM.

Work on C[C@H]1Cc2c([nH]c3c(F)cccc23)[C@H](c2c(F)cc(NC3CN(CCCF)C3)cc2F)N1CC(F)(F)CO [Example 422, 3-((1S,3S)-1-(2,6-difluoro-4-((1-(3-fluoropropyl)azetidin-3-yl)amino)phenyl)-8-fluoro-3-methyl-3,4-dihydro-1H-pyrido[3,4-b]indol-2(9H)-yl)-2,2-difluoropropan-1-ol] yielded an EC50 of 37.1 nM.

Work on C[C@@H]1Cc2c([nH]c3c(F)cccc23)[C@@H](c2c(F)cc(NC3CN(CCCF)C3)cc2F)N1CC(F)(F)CO [Example 423, 3-((1R,3R)-1-(2,6-difluoro-4-((1-(3-fluoropropyl)azetidin-3-yl)amino)phenyl)-8-fluoro-3-methyl-3,4-dihydro-1H-pyrido[3,4-b]indol-2(9H)-yl)-2,2-difluoropropan-1-ol] yielded an EC50 of 0.089 nM.

C[C@@H]1Cc2c([nH]c3c(F)cc(F)cc23)[C@@H](c2c(F)cc(OC3CN(CCCF)C3)cc2F)N1CC(C)(C)F [Example 424, (1R,3R)-1-(2,6-difluoro-4-(1-(3-fluoropropyl)azetidin-3-yloxy)phenyl)-6,8-difluoro-2-(2-fluoro-2-methylpropyl)-3-methyl-2,3,4,9-tetrahydro-1H-pyrido[3,4-b]indole] was tested, and the EC50 was 0.5 nM.

C[C@@H]1Cc2c([nH]c3cc(F)ccc23)[C@@H](c2c(F)cc(NC3CN(CCCF)C3)cc2F)N1CC(F)(F)CO [Example 425, 3-((1R,3R)-1-(2,6-difluoro-4-((1-(3-fluoropropyl)azetidin-3-yl)amino)phenyl)-7-fluoro-3-methyl-3,4-dihydro-1H-pyrido[3,4-b]indol-2(9H)-yl)-2,2-difluoropropan-1-ol] was tested, and the EC50 was 0.021 nM.

Work on C[C@H]1Cc2c([nH]c3cc(F)ccc23)[C@H](c2c(F)cc(NC3CN(CCCF)C3)cc2F)N1CC(F)(F)CO [Example 426, 3-((1S,3S)-1-(2,6-difluoro-4-((1-(3-fluoropropyl)azetidin-3-yl)amino)phenyl)-7-fluoro-3-methyl-3,4-dihydro-1H-pyrido[3,4-b]indol-2(9H)-yl)-2,2-difluoropropan-1-ol] yielded an EC50 of 6.38 nM.

Work on C[C@@H]1Cc2c([nH]c3ccccc23)[C@@H](c2c(F)cc(OC3CN(CC4(CF)CC4)C3)cc2F)N1CC(C)(C)F [Example 427, (1R,3R)-1-(2,6-difluoro-4-((1-((1-(fluoromethyl)cyclopropyl)methyl)azetidin-3-yl)oxy)phenyl)-2-(2-fluoro-2-methylpropyl)-3-methyl-2,3,4,9-tetrahydro-1H-pyrido[3,4-b]indole] yielded an EC50 of 0.278 nM.

Compound C[C@@H]1Cc2c([nH]c3cc(F)c(F)cc23)[C@@H](c2c(F)cc(OC3CN(CCCF)C3)cc2F)N1CC(C)(C)F [Example 428, (1R,3R)-1-(2,6-difluoro-4-(1-(3-fluoropropyl)azetidin-3-yloxy)phenyl)-6,7-difluoro-2-(2-fluoro-2-methylpropyl)-3-methyl-2,3,4,9-tetrahydro-1H-pyrido[3,4-b]indole] has an EC50 of 0.7 nM.

Work on C[C@@H]1Cc2c([nH]c3ccccc23)[C@@H](c2cnn(CC3CN(CCCF)C3)c2)N1CC(C)(C)F [Example 429, (1R,3R)-2-(2-fluoro-2-methylpropyl)-1-(1-((1-(3-fluoropropyl)azetidin-3-yl)methyl)-1H-pyrazol-4-yl)-3-methyl-2,3,4,9-tetrahydro-1H-pyrido[3,4-b]indole] yielded an EC50 of 0.99 nM.

C[C@@H]1Cc2c([nH]c3ccccc23)[C@@H](c2c(F)cc(NC3CN(CCCF)C3)cc2F)N1CC(F)F [Example 430, N-[4-[(1R,3R)-2-(2,2-difluoroethyl)-3-methyl-1,3,4,9-tetrahydropyrido[3,4-b]indol-1-yl]-3,5-difluoro-phenyl]-1-(3-fluoropropyl)azetidin-3-amine] showed an EC50 of 0.065 nM.

C[C@@H]1Cc2c([nH]c3ccc(F)cc23)[C@@H](c2c(F)cc(NC3CN(CCCF)C3)cc2F)N1C[C@@](C)(F)CO [Example 431, (R)-3-((1R,3R)-1-(2,6-difluoro-4-((1-(3-fluoropropyl)azetidin-3-yl)amino)phenyl)-6-fluoro-3-methyl-1,3,4,9-tetrahydro-2H-pyrido[3,4-b]indol-2-yl)-2-fluoro-2-methylpropan-1-ol] showed an EC50 of 0.0943 nM.

C[C@H]1Cc2c([nH]c3ccc(F)cc23)[C@H](c2c(F)cc(NC3CN(CCCF)C3)cc2F)N1C[C@](C)(F)CO [Example 432, (S)-3-((1S,3S)-1-(2,6-difluoro-4-((1-(3-fluoropropyl)azetidin-3-yl)amino)phenyl)-6-fluoro-3-methyl-1,3,4,9-tetrahydro-2H-pyrido[3,4-b]indol-2-yl)-2-fluoro-2-methylpropan-1-ol] gave an EC50 of 3.27 nM.

C[C@@H]1Cc2c([nH]c3ccc(F)cc23)[C@@H](c2c(F)cc(NC3CN(CCCF)C3)cc2F)N1C[C@](C)(F)CO [Example 433, (S)-3-((1R,3R)-1-(2,6-difluoro-4-((1-(3-fluoropropyl)azetidin-3-yl)amino)phenyl)-6-fluoro-3-methyl-1,3,4,9-tetrahydro-2H-pyrido[3,4-b]indol-2-yl)-2-fluoro-2-methylpropan-1-ol] was tested, and the EC50 was 0.0209 nM.

With C[C@H]1Cc2c([nH]c3ccc(F)cc23)[C@@H](c2c(F)cc(NC3CN(CCCF)C3)cc2F)N1C[C@@](C)(F)CO [Example 434, (R)-3-((1R,3S)-1-(2,6-difluoro-4-((1-(3-fluoropropyl)azetidin-3-yl)amino)phenyl)-6-fluoro-3-methyl-1,3,4,9-tetrahydro-2H-pyrido[3,4-b]indol-2-yl)-2-fluoro-2-methylpropan-1-ol] the EC50 was 0.706 nM.
